Measurements from patent US6680025B2, “Device and method for photoactivation” (Cerus Corporation, priority 1989, dated 2004).

Columns and labels:
Assay type in all cases: biochemical
[1] = test system: 500-mer (lambda plasmid, primers PCR 01/02); experiment: Sterilization sensitivity, 500-mer PCR product; settings: CE-III 15 minutes, 30 cycles
Excerpt: (§1) As discussed generally for sterilization, it is expected that the sensitivity of sterilization will depend upon both the modification density and the length of the PCR target sequences. In this experiment, the effect of modification density and target length on sterilization sensitivity were examined by sterilizing two different length PCR products with either AMIP or AMDMIP. Each isopsoralen was used at two different concentrations for the sterilization procedure to produce differing modification densities on PCR targets.
(§2) The two PCR targets used in these experiments were a 115-mer (SK-38/SK-39 HIV system) and a 500-mer. The 500-mer target is obtained from a PCR amplification of a lambda plasmid with primers PCR 01/02. This system is provided by Cetus/Perkin Elmer as a control in their commercial kits of PCR reagents (Catalogue No. N801-0055). For both of these systems equivalent copy numbers of each target were prepared in the following manner: An initial 30 cycle PCR reaction was carried out for each system with the appropriate primers and targets. Aliquots (approximately 10^5-10^6 target copies) of each of these reactions were transferred to a second set of PCR reactions. These second sets of PCR amplifications were carried out in the presence of α-32P-dCTP, again for 30 cycles. Aliquots of these reactions were removed and counted by liquid scintillation counting. With these numbers, the specific activity of the α-32P-dCTP, and the sequence of each of the PCR product oligonucleotides (115-mer and 500-mer), the concentrations of each of the two PCR product oligonucleotides in the second set of PCR reaction tubes was determined. Both the 115-mer and the 500-mer concentrations were then adjusted to exactly 1×10^−8M by the addition of additional Taq buffer. These stocks of equivalent copy number of PCR products were then used for further investigation. Each of the stock solutions then was subdivided into four reaction tubes. The reaction tubes were adjusted to contain the following: Tube 1, 100 μg/ml AMIP; Tube 2, 400 μg/ml AMIP; Tube 3, 100 μ/ml AMDMIP: and Tube 4, 400 μg/ml AMDMIP. Each of these samples were again split into two portions, one part being irradiated for 15 minutes at room temperature with the CE-III device and the other part kept in the dark. Serial dilutions of the irradiated and the unirradiated targets were then carried out on these samples for 30 cycles in the presence of α-32P-CTP. Aliquots of these samples were analyzed on denaturing polyacrylamide gels. The PCR product bands were visualized by autoradiography, cut, and counted in a liquid scintillation counter.

T4 polymerase = experiment: Primer extension on monoadducted 71-mer, T4 polymerase; settings: 37° C., 0, 5 or 15 minutes
Excerpt: The sequences that are presented in FIG. 26 describe several oligonucleotides that are used in the synthesis of either a normal 71-mer or the identical 71-mer containing a site-specifically placed psoralen or isopsoralen monoadduct. The 71-mer is a sub-sequence of the Human Immunodeficiency Virus (HIV) sequence. (An HIV DNA system is described in a co-pending application, Serial No. 225,725.) SK-39 is a primer oligonucleotide that is complementary to the 3′ end of the 71-mers. This primer oligonucleotide can be extended on the 71-mer template to make a complementary strand of the 71-mer.
Preparation of 71-mers which contain site-specific monoadducts involves 1) preparation of different 15-mer monoadducts from the same unmodified 15-mer (HRI-42), and 2) ligation of the different 15-mer monoadducts to the same 56-mer “extender oligonucleotide” (HRI 102) using a 25-mer oligonucleotide (HRI-45) as a splint. The arrows in FIG. 27 indicate the direction of synthesis, while the monoadduct is indicated by a short line that is perpendicular to the oligomer. While each of the 71-mer monoadducts contains the adduct at a base position that is greater than 56 bases from the 5′ end, the precise position of the monoadduct is not meant to be indicated.
To prepare the 15-mer adducts, the 15-mer was incubated with a complementary 10-mer along with psoralen or isopsoralen under hybridization conditions. The mixture was then irradiated to provide the monoadducted 15-mer. While the invention is not dependent on knowing the precise mechanism of coupling, it has generally been believed that the 10-mer directs the isopsoralen to a single TpA site within the double-stranded helix formed by the 10-mer/15-mer hybrid. […]
To provide highly purified 71-mers which contain a single monoadduct, it was necessary to provide highly purified 15-mer monoadduct prior to the ligation step. […] Separation of 15-mer monoadduct from unmodified 15-mer was readily accomplished by PAGE (while the same technique is not effective for separation of the corresponding unmodified 71-mer and monoadducted 71-mer sequences). […]

[2] = test system: 115-mer (SK-38/SK-39 HIV system); experiment: Sterilization sensitivity, 115-mer PCR product; settings: CE-III 15 minutes, 30 cycles
Excerpt: as §1, §2

## NCc1cc2occc2c2oc(=O)ccc12 [AMIP, 5-Aminomethylisopsoralen]
[1]; 100 μg/ml
  sterilization sensitivity (carryover sterilized): more effectively sterilized than the 115-mer PCR product
[1]; 400 μg/ml
  sterilization sensitivity (carryover sterilized): ≥ 6×10^9 molecules of carryover
T4 polymerase
  block of primer extension by 71-mer monoadduct: complete stops
[2]; 100 μg/ml
  sterilization sensitivity (carryover sterilized): about 10,000 molecules of carryover
[2]; 400 μg/ml
  sterilization sensitivity (carryover sterilized): about 10^6 carryover molecules

## Cc1oc2ccc3c(C)cc(=O)oc3c2c1CN [AMDMIP, 4′-Aminomethyl-4,5′-dimethylisopsoralen]
[1]; 100 μg/ml
  sterilization sensitivity (carryover sterilized): ≥ 6×10^9 carryover molecules
[1]; 400 μg/ml
  sterilization sensitivity (carryover sterilized): no signal in the irradiated dilution series
T4 polymerase
  block of primer extension by 71-mer monoadduct: complete stop
[2]; 100 μg/ml
  sterilization sensitivity (carryover sterilized): better sterilization agent
[2]; 400 μg/ml
  sterilization sensitivity (carryover sterilized): ≥ 6×10^9 carryover molecules

## Cc1cc2occc2c2oc(=O)ccc12 [MIP, 5-Methylisopsoralen]
T4 polymerase
  block of primer extension by 71-mer monoadduct: complete stops
